In US5451508A, “Method and monoclonal antibodies for vitamin B12 determination” (Boehringer Mannheim GmbH, priority 1989, dated 1995) one finds cross-reactivity and cross-reaction data, which are given here for five molecules.

The assay relates to monoclonal antibody MAB 1 and MAB 2. As to the kind of experiment: ELISA determination of the cross-reaction of vitamin B12 derivatives with the monoclonal antibodies. The class given is binding, mice. To be noted: for cross-reactivity: monoclonal antibodies according to the invention (e.g. from cell lines ECACC 88101301 and ECACC 88101302), stated in description; for cross-reaction: values identical for MAB 1 and MAB 2, antigen added at 50, 500, 5000 μg/ml, calculated from concentrations giving 50% of max. signal. How it is done:
The plates are re-treated for 10 minutes with 0.9% sodium chloride solution and 1% albumin solution. Subsequently they are washed with 0.9% sodium chloride solution.
Afterwards they are incubated at 37° C. for one hour with 100 μl sample and washed again with 0.9% sodium chloride solution. In order to test the cross-reaction 50, 500 and 5000 μg/ml of the vitamin B12 derivative to be tested is added to the sample solution. A reduction of the measured signal in the presence of the derivative indicates a cross-reaction. A further incubation follows (1 hour, 37° C.) with 450 U/ml of a sheep-Fab-anti-mouse Fcγ peroxidase conjugate. After washing once again with 0.9% sodium chloride the peroxidase activity is determined in the usual way (for example with 2,2'azino-di-[3-ethylbenzthiazoline sulphonate (6)] (ABTS®), 30 minutes at room temperature, the difference in absorbance ΔmA is read at 422 nm).
The antigen to be tested for cross-reaction is added in increasing concentrations (50 μg/ml, 500 μg/ml, 5000 μg/ml) to the monoclonal antibody. Afterwards the cross-reaction is calculated from the following formula: [formula]

“(carboxy(2-cyanamino-4,5-dimethylphenyl)-amino)-cobamide”: the cross-reactivity is recorded as 0.07% and the cross-reaction was 0.07.

On to “2-hydroxy-5,6-dimethylbenzimidazolyl-cobamide”, for which the cross-reactivity amounted to 1.5% and the cross-reaction was 1.5.

Turning to `C/C1=C2/[N-][C@H]([C@H](CC(N)=O)[C@@]2(C)CCC(=O)NC[C@@H](C)OP(=O)([O-])O[C@H]2[C@@H](O)[C@@H](n3cnc4cc(C)c(C)cc43)O[C@@H]2CO)[C@]2(C)N=C(/C(C)=C3N=C(/C=C4N=C1[C@@H](CCC(N)=O)C\4(C)C)[C@@H](CCC(N)=O)[C@]\3(C)CC(N)=O)[C@@H](CCC(N)=O)[C@]2(C)CC(N)=O.[CH3-].[Co+3]` [Methylcobalamin], the cross-reactivity was found to be 100% and the cross-reaction is listed as 100.

As to Purinylcobinamide, the cross-reactivity came to 1.1% and the cross-reaction was 1.1.

Consider Cobyrinic acid-diamide, for which the cross-reactivity is reported as below 0.05% and the cross-reaction was below 0.05.
